In US6127380A, “4-aminoalkoxy-1H-benzoimidazoles” (American Home Products Corporation, priority 1998, dated 2000):
pIC50: −log10 of the molar value. Where two headings read alike, the source gives them in different places.

How the values were obtained:
[1] = target: T1, dopamine autoreceptor (D2) (Rattus norvegicus, UniProt P61169); assay: Affinity for the dopamine autoreceptor, 3H-quinpirole binding in homogenized rat striatal brain tissue (D2 Quin.); details: for IC50: 3H-quinpirole, homogenized rat striatal brain tissue, read-out: IC50 (nM) D2 Quin.
T1 construct: homogenized rat striatal brain tissue; from tissue; host or cells: rat striatum, homogenate
T1 sequence (P61169 whole entry): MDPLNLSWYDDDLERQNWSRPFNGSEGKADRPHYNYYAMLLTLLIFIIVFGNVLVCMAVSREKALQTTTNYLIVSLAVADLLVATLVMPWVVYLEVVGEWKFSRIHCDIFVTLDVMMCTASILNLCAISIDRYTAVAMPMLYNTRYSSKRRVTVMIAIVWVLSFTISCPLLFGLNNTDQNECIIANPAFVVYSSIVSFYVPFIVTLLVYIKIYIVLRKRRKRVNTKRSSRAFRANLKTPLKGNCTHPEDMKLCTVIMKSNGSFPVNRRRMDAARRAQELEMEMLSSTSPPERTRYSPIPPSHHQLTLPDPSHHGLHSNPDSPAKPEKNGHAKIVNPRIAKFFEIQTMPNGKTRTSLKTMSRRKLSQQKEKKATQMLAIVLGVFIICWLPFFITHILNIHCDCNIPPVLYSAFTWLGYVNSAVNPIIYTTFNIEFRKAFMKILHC
Description: Affinity for the dopamine autoreceptor was established by a modification of the standard experimental test procedure of Seemen and Schaus, European Journal of Pharmacology 203: 105-109, 1991, wherein homogenized rat striatal brain tissue is incubated with ^3 H-quinpirole (Quin.) and various concentrations of test compound, filtered and washed and counted in a Betaplate scintillation counter.

[2] = target: T2, dopamine D-2 receptor (Rattus norvegicus, UniProt P61169); assay: Affinity for the dopamine D-2 receptor, 3H-spiroperidol binding in homogenized limbic brain tissue (D2 Spiper); details: for IC50: 3H-spiroperidol, homogenized limbic brain tissue, read-out: IC50 (nM) D2 Spiper; for Ratio: IC50 D2 Spiper / IC50 D2 Quin. (LowAg/HighAg, predicts intrinsic activity)
T2 construct: from tissue; host or cells: limbic brain tissue, homogenate
T2 sequence (P61169 whole entry): as above
Description: High affinity for the dopamine D-2 receptor was established by the standard experimental test procedure of Fields, et al., Brain Res., 136, 578 (1977) and Yamamura et al., eds., Neurotransmitter Receptor Binding, Raven Press, N.Y. (1978) wherein homogenized limbic brain tissue is incubated with ^3 H-spiroperidol (Spiper.) and various concentrations of test compound, filtered and washed and shaken with Hydrofluor scintillation cocktail (National Diagnostics) and counted in a Packard 460 CD scintillation counter.

SMILES | IC50 [1] [nM] | IC50 [2] [nM] | Ratio [2] | pIC50 [1] | pIC50 [2]
c1ccc(CNCCOc2cccc3nc[nH]c23)cc1 [Example 1, [2-(1H-Benzoimidazol-4-yloxy)-ethyl]-benzyl-amine] | 26.7 | – | – | – | –
FC(F)(F)c1nc2c(OCCNCc3ccccc3)cccc2[nH]1 [Example 3, Benzyl-[2-(2-trifluoromethyl-1H-benzoimidazol-4-yloxy)-ethyl]-amine] | 0.36 | 23.7 | 65.8 | – | –
Cc1ccc(CNCCOc2cccc3[nH]c(C(F)(F)F)nc23)cc1 [Example 4, (4-Methyl-benzyl)-[2-(2-trifluoromethyl-1H-benzoimidazol-4-yloxy)-ethyl]-amine] | 0.74 | 29.9 | 40.4 | – | –
Cc1ccc(CNCCOc2cccc3[nH]c(C(F)(F)C(F)(F)F)nc23)cc1 [Example 6, (4-Methyl-benzyl)-{2-[2-(1,1,2,2,2-pentafluoro-ethyl)-1H-benzoimidazol-4-yloxy]-ethyl}-amine] | 1.44 | 66.5 | 46.2 | – | –
Cc1ccc(CNCCOc2cccc3[nH]c(C(F)(F)C(F)(F)C(F)(F)F)nc23)cc1 [Example 12, (4-Methyl-benzyl)-{2-[2-(1,1,2,2,3,3,3-heptafluoro-propyl)-1H-benzoimidazol-4-yloxy]-ethyl}-amine] | – | – | 23.0 | 8.29 | 6.93
FC(F)(F)c1nc2c(OCCN3CCc4ccccc4C3)cccc2[nH]1 [Example 13] | 8 | 314 | 39.4 | – | –
FC(F)(F)c1nc2c(OCCNCc3ccccc3)cc(Cl)cc2[nH]1 [Example 14, Benzyl-[2-(6-chloro-2-trifluoromethyl-1H-benzoimidazol-4-yloxy)-ethyl]-amine] | 1.42 | 151 | 106 | – | –
FC(F)(F)c1ccc(CNCCOc2cccc3[nH]c(C(F)(F)F)nc23)cc1 [Example 17, [2-(2-Trifluoromethyl-1H-benzoimidazol-4-yloxy)-ethyl]-(4-trifluoromethyl-benzyl)-amine] | 1.16 | 87 | 75.0 | – | –
FC(F)(F)c1nc2c(OCCNCCCc3ccccc3)cccc2[nH]1 [Example 18, (3-Phenyl-propyl)-[2-(2-trifluoromethyl-1H-benzoimidazol-4-yloxy)-ethyl]-amine] | 0.56 | – | – | – | –

More lines, in order of falling IC50 [1], values ahead:

IC50 [1] [nM] | IC50 [2] [nM] | Ratio [2] | SMILES | pIC50 [1] | pIC50 [2]
86.8 | 1460 | 16.8 | FC(F)(F)c1nc2c(OCCCNCc3ccccc3)cccc2[nH]1 [Example 8, Benzyl-[3-(2-trifluoromethyl-1H-benzoimidazol-4-yloxy)-propyl]-amine] | – | –
54.8 | 2160 | 39.4 | Cc1ccc(CNCCOc2cccc3[nH]c(Cc4ccccc4)nc23)cc1 [Example 5, [2-(2-Benzyl-1H-benzoimidazol-4-yloxy)-ethyl]-(4-methyl-benzyl)-amine] | – | –
52.8 | – | – | c1csc(CNCCOc2cccc3[nH]cnc23)c1 [Example 11, Thiophen-2-ylmethyl-[2-(1H-benzoimidazol-4-yloxy)-ethyl]-amine] | – | –
8.85 | 339 | 38.3 | Cc1nc2c(OCCNCc3ccccc3)cccc2[nH]1 [Example 2, Benzyl-[2-(2-methyl-1H-benzoimidazol-4-yloxy)-ethyl]-amine] | – | –
7.77 | 395 | 50.8 | FC(F)(F)c1nc2c(OCCNCc3ccc(Cl)cc3)cc(Cl)cc2[nH]1 [Example 15, 4-Chloro-benzyl-[2-(6-chloro-2-trifluoromethyl-1H-benzoimidazol-4-yloxy)-ethyl]-amine] | – | –
1.41 | 41.9 | 29.7 | FC(F)(F)C(F)(F)c1nc2c(OCCNCc3ccccc3)cccc2[nH]1 [Example 9, Benzyl-{2-[2-(1,1,2,2,2-pentafluoro-ethyl)-1H-benzoimidazol-4-yloxy]-ethyl}-amine] | – | –
1.03 | 37.4 | 36.3 | FC(F)(F)c1nc2c(OCCNCc3cccs3)cccc2[nH]1 [Example 7, Thiophen-2-ylmethyl-[2-(2-trifluoromethyl-1H-benzoimidazol-4-yloxy)-ethyl]-amine] | – | –
0.86 | 81.5 | 94.8 | FC(F)(F)c1nc2c(OCCNCc3cccc4ccccc34)cccc2[nH]1 [Example 10, Naphthalen-1-ylmethyl-[2-(2-trifluoromethyl-1H-benzoimidazol-4-yloxy]-ethyl]-amine] | – | –
0.74 | 49 | 66.2 | Fc1ccc(CNCCOc2cccc3[nH]c(C(F)(F)F)nc23)cc1 [Example 16, (4-Fluoro-benzyl)-2[2-(2-trifluoromethyl-1H-benzoimidazol-4-yloxy)-ethyl]-amine] | – | –
